PubChem BioAssay (NCI)
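48-hour exposure; five concentrations; linearly interpolated endpoints. GI50: concentration for 50% inhibition of growth. TGI: concentration producing complete growth inhibition.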

What was measured:
Test in all cases: inhibition of tumour cell growth, NCI panel, 48 h
HCT-116 colon = tested on: HCT-116 colon
HCT-15 colon = tested on: HCT-15 colon
PC-3 prostate = tested on: PC-3 prostate
HOP-92 NSCLC = tested on: HOP-92 NSCLC
SR leukemia = tested on: SR leukemia
EKVX NSCLC = tested on: EKVX NSCLC
NCI-H522 lung = tested on: NCI-H522 lung
SK-OV-3 ovarian = tested on: SK-OV-3 ovarian
HL-60(TB) leukemia = tested on: HL-60(TB) leukemia
MALME-3M melanoma = tested on: MALME-3M melanoma
HCC-2998 colon = tested on: HCC-2998 colon
M14 melanoma = tested on: M14 melanoma
OVCAR-3 ovarian = tested on: OVCAR-3 ovarian
LOX IMVI melanoma = tested on: LOX IMVI melanoma
UACC-257 melanoma = tested on: UACC-257 melanoma
T-47D breast = tested on: T-47D breast
HT29 colon = tested on: HT29 colon
NCI-H23 lung = tested on: NCI-H23 lung
MCF7 breast = tested on: MCF7 breast
SK-MEL-28 melanoma = tested on: SK-MEL-28 melanoma
NCI/ADR-RES ovarian = tested on: NCI/ADR-RES ovarian
NCI-H226 lung = tested on: NCI-H226 lung
SF-295 CNS = tested on: SF-295 CNS
UO-31 renal = tested on: UO-31 renal
OVCAR-5 ovarian = tested on: OVCAR-5 ovarian
NCI-H460 lung = tested on: NCI-H460 lung
SF-268 CNS = tested on: SF-268 CNS
CCRF-CEM leukemia = tested on: CCRF-CEM leukemia
KM12 colon = tested on: KM12 colon

Compound: NC(=O)c1c(NC(=O)c2ccc(C(F)(F)F)cc2)sc2c1CCC(=O)C2
- GI50 (HCT-116 colon): 369 nM
- TGI (HCT-116 colon): 3550 nM
- GI50 (HCT-15 colon): 699 nM
- TGI (HCT-15 colon): 2810 nM
- GI50 (PC-3 prostate): 316 nM
- TGI (PC-3 prostate): 1860 nM
- GI50 (HOP-92 NSCLC): 726 nM
- TGI (HOP-92 NSCLC): 3470 nM
- GI50 (SR leukemia): 393 nM
- TGI (SR leukemia): > 100000 nM
- GI50 (EKVX NSCLC): 2420 nM
- TGI (EKVX NSCLC): 8580 nM
- GI50 (NCI-H522 lung): 613 nM
- TGI (NCI-H522 lung): 2390 nM
- GI50 (SK-OV-3 ovarian): 3030 nM
- TGI (SK-OV-3 ovarian): > 28600 nM
- GI50 (HL-60(TB) leukemia): 1350 nM
- TGI (HL-60(TB) leukemia): 8060 nM
- GI50 (MALME-3M melanoma): 1080 nM
- TGI (MALME-3M melanoma): 3100 nM
- GI50 (HCC-2998 colon): 2490 nM
- TGI (HCC-2998 colon): 6950 nM
- GI50 (M14 melanoma): 1860 nM
- TGI (M14 melanoma): 4560 nM
- GI50 (OVCAR-3 ovarian): 575 nM
- TGI (OVCAR-3 ovarian): 2470 nM
- GI50 (LOX IMVI melanoma): 391 nM
- TGI (LOX IMVI melanoma): 2240 nM
- GI50 (UACC-257 melanoma): 1980 nM
- TGI (UACC-257 melanoma): 5900 nM
- GI50 (T-47D breast): 545 nM
- TGI (T-47D breast): 3340 nM
- GI50 (HT29 colon): 1070 nM
- TGI (HT29 colon): 5260 nM
- GI50 (NCI-H23 lung): 887 nM
- TGI (NCI-H23 lung): 9090 nM
- GI50 (MCF7 breast): 1370 nM
- TGI (MCF7 breast): 10100 nM
- GI50 (SK-MEL-28 melanoma): 1140 nM
- TGI (SK-MEL-28 melanoma): 2820 nM
- GI50 (NCI/ADR-RES ovarian): 1480 nM
- TGI (NCI/ADR-RES ovarian): 7490 nM
- GI50 (NCI-H226 lung): 2040 nM
- TGI (NCI-H226 lung): 4980 nM
- GI50 (SF-295 CNS): 2170 nM
- TGI (SF-295 CNS): 6010 nM
- GI50 (UO-31 renal): 645 nM
- TGI (UO-31 renal): 1900 nM
- GI50 (OVCAR-5 ovarian): 1890 nM
- TGI (OVCAR-5 ovarian): 6080 nM
- GI50 (NCI-H460 lung): 3350 nM
- TGI (NCI-H460 lung): 12800 nM
- GI50 (SF-268 CNS): 1480 nM
- TGI (SF-268 CNS): 14400 nM
- GI50 (CCRF-CEM leukemia): 266 nM
- TGI (CCRF-CEM leukemia): 14000 nM
- GI50 (KM12 colon): 1720 nM
- TGI (KM12 colon): 7180 nM
